Here are results for 12 molecules from US20260193293A1, “PEPTIDES CAPABLE OF INHIBITING PROTEIN-PROTEIN INTERACTIONS AT GABAB1A SUBUNIT AND USES THEREOF” (UNIVERSITY OF COPENHAGEN, priority 2022, published 2026).

What is called Ki is the dissociation constant of the complex between target and ligand, obtained from inhibition or displacement.

The target of the assay is Sushi domains (SD1/2) protein. Put plainly: Fluorescence polarization (FP) competition assay with AJAP-1probe, calculated Ki. The class given is binding. In a few lines: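 Competition against 25 nM TAMRA-labelled peptide probe binding SD1/2, in PBS pH 7.4 with 1% BSA at rt, read at 530/580 nm. IC50 from sigmoidal dose-response fits, at least triplicate; Ki calculated from IC50 using probe Kd from saturation binding.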

Setting [1] is: CPP tagged peptides overview, SD1/2 binding affinity, mean ± SEM, n ≥ 3, read-out: Ki.
Setting [2] is: Table 14, CPPs tagged peptides, read-out: Ki (nM) mean ± SEM.
[3] abbreviates: Table 1, affinity maturation, mean ± SEM, n ≥ 3, read-out: Ki.
Where [4] appears, read: Table 13, peptides for affinity maturation, read-out: Ki (nM) mean ± SEM.

Read-outs that look alike come from different tables or passages of the source. Residues, ends and D or L forms follow the SMILES beside them.

Take `CC[C@H](C)[C@H](NC(=O)[C@H](Cc1c[nH]c2ccccc12)NC(=O)[C@H](CC(=O)O)NC(=O)[C@H](CC(=O)O)NC(=O)[C@H](CC(=O)O)NC(=O)[C@H](CCC(=O)O)NC(C)=O)C(=O)N[C@@H](CC(=O)O)C(=O)N[C@@H](Cc1c[nH]c2ccccc12)C(=O)N[C@@H](Cc1ccc(O)cc1)C(=O)N[C@@H](CC(=O)O)C(=O)N[C@@H](CO)C(=O)N[C@@H](CC(=O)O)C(=O)N[C@@H](CC(=O)O)C(=O)N[C@@H](CC(=O)O)C(=O)N[C@@H](CCC(=O)O)C(=O)N[C@@H](C)C(=O)N[C@@H](C)C(=O)N[C@@H](C)C(=O)N[C@@H](CCCCN)C(=O)N[C@@H](CCCNC(=N)N)C(=O)N[C@@H](CCCNC(=N)N)C(=O)N[C@@H](CCCNC(=N)N)C(=O)N[C@@H](CCCNC(=N)N)C(=O)N[C@@H](CCCNC(=N)N)C(=O)N[C@@H](CCCNC(=N)N)C(=O)N[C@@H](CCCNC(=N)N)C(=O)N[C@@H](CCCNC(=N)N)C(N)=O` [Peptide 16-RL-R8] (Ac-EDDDWIDWYDSDDDEAAAKRRRRRRRR-NH2): the Ki reads like this: under setting [1], 100 ± 4 nM; under setting [2], 99.5 ± 4 nM.

Consider `CC[C@H](C)[C@H](NC(=O)[C@H](Cc1c[nH]c2ccccc12)NC(=O)[C@H](CC(=O)O)NC(=O)[C@H](CC(=O)O)NC(=O)[C@H](CC(=O)O)NC(=O)[C@H](CCC(=O)O)NC(C)=O)C(=O)N[C@@H](CC(=O)O)C(=O)N[C@@H](Cc1c[nH]c2ccccc12)C(=O)NCC(=O)N1CCC[C@H]1C(=O)N[C@H](C(=O)N[C@@H](CO)C(=O)N[C@@H](CC(=O)O)C(=O)N[C@@H](CC(=O)O)C(=O)N[C@@H](CC(=O)O)C(=O)NCC(=O)NCC(=O)NCC(=O)NCC(=O)N[C@@H](CO)C(=O)N[C@@H](CCCNC(=N)N)C(=O)N[C@@H](CCCNC(=N)N)C(=O)N[C@@H](CCCNC(=N)N)C(=O)N[C@@H](CCCNC(=N)N)C(=O)N[C@@H](CCCNC(=N)N)C(=O)N[C@@H](CCCNC(=N)N)C(=O)N[C@@H](CCCNC(=N)N)C(=O)N[C@@H](CCCNC(=N)N)C(N)=O)[C@@H](C)O` [Peptide 17-FL-R8] (Ac-EDDDWIDWGPTSDDDGGGGSRRRRRRRR-NH2), for which the inhibitory constant (Ki) by setting is: under setting [1], 147 ± 9 nM; under setting [2], 147 ± 9 nM.

Take `CC[C@H](C)[C@H](NC(=O)[C@H](Cc1c[nH]c2ccccc12)NC(=O)[C@H](CC(=O)O)NC(=O)[C@H](CC(=O)O)NC(=O)[C@H](CC(=O)O)NC(=O)[C@H](CCC(=O)O)NC(C)=O)C(=O)N[C@@H](CC(=O)O)C(=O)N[C@@H](Cc1c[nH]c2ccccc12)C(=O)NCC(=O)N1CCC[C@H]1C(=O)N[C@H](C(=O)N[C@@H](CO)C(=O)N[C@@H](CC(=O)O)C(=O)N[C@@H](CC(=O)O)C(=O)N[C@@H](CC(=O)O)C(=O)N[C@@H](CCCNC(=N)N)C(=O)N[C@@H](CCCNC(=N)N)C(=O)N[C@@H](CCCNC(=N)N)C(=O)N[C@@H](CCCNC(=N)N)C(=O)N[C@@H](CCCNC(=N)N)C(=O)N[C@@H](CCCNC(=N)N)C(=O)N[C@@H](CCCNC(=N)N)C(=O)N[C@@H](CCCNC(=N)N)C(N)=O)[C@@H](C)O` [Peptide 17-R8] (Ac-EDDDWIDWGPTSDDDRRRRRRRR-NH2): the inhibition constant Ki under setting [1] was 123 ± 4 nM and the Ki under setting [2] is 123 ± 4 nM.

For the molecule `CC[C@H](C)[C@H](NC(=O)[C@H](Cc1c[nH]c2ccccc12)NC(=O)[C@H](CC(=O)O)NC(=O)[C@H](CC(=O)O)NC(=O)[C@H](CC(=O)O)NC(=O)[C@H](CCC(=O)O)NC(C)=O)C(=O)N[C@@H](CC(=O)O)C(=O)N[C@@H](Cc1c[nH]c2ccccc12)C(=O)NCC(=O)N1CCC[C@H]1C(=O)N[C@H](C(=O)N[C@@H](CO)C(=O)N[C@@H](CC(=O)O)C(=O)N[C@@H](CC(=O)O)C(=O)N[C@@H](CC(=O)O)C(=O)N[C@@H](CCC(=O)O)C(=O)N[C@@H](C)C(=O)N[C@@H](C)C(=O)N[C@@H](C)C(=O)N[C@@H](CCCCN)C(=O)N[C@@H](CCCNC(=N)N)C(=O)N[C@@H](CCCNC(=N)N)C(=O)N[C@@H](CCCNC(=N)N)C(=O)N[C@@H](CCCNC(=N)N)C(=O)N[C@@H](CCCNC(=N)N)C(=O)N[C@@H](CCCNC(=N)N)C(=O)N[C@@H](CCCNC(=N)N)C(=O)N[C@@H](CCCNC(=N)N)C(N)=O)[C@@H](C)O` [Peptide 17-RL-R8] (Ac-EDDDWIDWGPTSDDDEAAAKRRRRRRRR-NH2), the inhibition constant (Ki) by setting is: under setting [1], 139 ± 2 nM; under setting [2], 139 ± 2 nM.

Consider `CC[C@H](C)[C@H](NC(=O)[C@H](Cc1c[nH]c2ccccc12)NC(=O)[C@H](CC(=O)O)NC(=O)[C@H](CC(=O)O)NC(=O)[C@H](CC(=O)O)NC(=O)[C@H](CCC(=O)O)NC(C)=O)C(=O)N[C@@H](CC(=O)O)C(=O)N[C@@H](Cc1c[nH]c2ccccc12)C(=O)NCC(=O)N1CCC[C@H]1C(=O)N[C@H](C(=O)N[C@@H](CO)C(=O)N[C@@H](CC(=O)O)C(=O)N[C@@H](CC(=O)O)C(=O)N[C@@H](CC(=O)O)C(=O)N[C@@H](Cc1ccc(O)cc1)C(=O)NCC(=O)N[C@@H](CCCNC(=N)N)C(=O)N[C@@H](CCCCN)C(=O)N[C@@H](CCCCN)C(=O)N[C@@H](CCCNC(=N)N)C(=O)N[C@@H](CCCNC(=N)N)C(=O)N[C@@H](CCC(N)=O)C(=O)N[C@@H](CCCNC(=N)N)C(=O)N[C@@H](CCCNC(=N)N)C(=O)N[C@@H](CCCNC(=N)N)C(N)=O)[C@@H](C)O` [Peptide 17-Tat] (Ac-EDDDWIDWGPTSDDDYGRKKRRQRRR-NH2), for which the inhibitory constant (Ki) by setting is: under setting [1], 79 ± 1 nM; under setting [2], 78.5 ± 1 nM.

Take `CC[C@H](C)[C@H](NC(=O)[C@H](Cc1ccc(O)cc1)NC(=O)[C@H](CC(=O)O)NC(=O)[C@H](CC(=O)O)NC(=O)[C@H](CCC(=O)O)NC(C)=O)C(=O)N[C@@H](CC(=O)O)C(=O)N[C@@H](Cc1c[nH]c2ccccc12)C(=O)N[C@@H](Cc1ccc(O)cc1)C(=O)N[C@@H](CC(=O)O)C(=O)N[C@@H](CO)C(=O)N[C@@H](CC(=O)O)C(=O)N[C@@H](CC(=O)O)C(=O)N[C@@H](CC(=O)O)C(N)=O` [Peptide 18] (Ac-EDDYIDWYDSDDD-NH2): the Ki was 4.6 ± 0.3 nM under setting [3] and 4.6 ± 0.3 nM under setting [4].

For the molecule `CC[C@H](C)[C@H](NC(=O)[C@H](Cc1ccc(O)cc1)NC(=O)[C@H](CC(=O)O)NC(=O)[C@H](CC(=O)O)NC(=O)[C@H](CCC(=O)O)NC(C)=O)C(=O)N[C@@H](CC(=O)O)C(=O)N[C@@H](Cc1c[nH]c2ccccc12)C(=O)NCC(=O)N1CCC[C@H]1C(=O)N[C@H](C(=O)N[C@@H](CO)C(=O)N[C@@H](CC(=O)O)C(=O)N[C@@H](CC(=O)O)C(=O)N[C@@H](CC(=O)O)C(N)=O)[C@@H](C)O` [Peptide 19] (Ac-EDDYIDWGPTSDDD-NH2), the inhibitory constant (Ki) by setting is: under setting [3], 3.8 ± 0.2 nM; under setting [4], 3.8 ± 0.2 nM.

As for `CC[C@H](C)[C@H](NC(=O)[C@H](Cc1ccccc1)NC(=O)[C@H](CCC(=O)O)NC(=O)[C@@H](NC(=O)[C@H](CCC(=O)O)NC(C)=O)[C@@H](C)O)C(=O)N[C@@H](CC(=O)O)C(=O)N[C@@H](Cc1c[nH]c2ccccc12)C(=O)NCC(=O)N1CCC[C@H]1C(=O)N[C@H](C(=O)NCC(=O)N[C@@H](CC(=O)O)C(=O)N[C@@H](CCC(=O)O)C(=O)N[C@@H](CC(=O)O)C(N)=O)[C@@H](C)O` [Peptide 26, Ac-ETEFIDWGPTGDED-NH2] (Ac-ETEFIDWGPTGDED-NH2), the inhibition constant (Ki) is 9 ± 1 nM (Table 11, deep mutational scanning validation variants of AJAP-1WT, read-out: Ki (nM) mean ± SEM); 9 nM (purified peptides, read-out: Ki); 9 nM (unit inferred, read-out: Ki). Further, the “fold improved affinity relative to the wild type” value (relative to AJAP-1WT) was 3 fold.

Consider `CC[C@H](C)[C@H](NC(=O)[C@H](Cc1c[nH]c2ccccc12)NC(=O)[C@H](CO)NC(=O)[C@H](CC(=O)O)NC(=O)[C@H](CC(=O)O)NC(=O)[C@H](CCC(=O)O)NC(C)=O)C(=O)N[C@@H](Cc1c[nH]c2ccccc12)C(=O)N[C@@H](Cc1c[nH]c2ccccc12)C(=O)NCC(=O)N1CCC[C@H]1C(=O)N[C@H](C(=O)NCC(=O)N[C@@H](CC(=O)O)C(=O)N[C@@H](CCC(=O)O)C(=O)N[C@@H](CC(=O)O)C(N)=O)[C@@H](C)O` [Peptide 27, Ac-EDDSWIWWGPTGDED-NH2] (Ac-EDDSWIWWGPTGDED-NH2), for which the inhibitory constant (Ki) under setting [3] is 16 ± 1 nM and the Ki under setting [4] is 16 ± 1 nM. Further, the “fold better affinity than 9” value (comparator printed as 9) is reported as 3.8 fold.

`CC[C@H](C)[C@H](NC(=O)[C@H](Cc1c[nH]c2ccccc12)NC(=O)[C@H](CO)NC(=O)[C@H](CC(=O)O)NC(=O)[C@H](CC(=O)O)NC(=O)[C@H](CCC(=O)O)NC(C)=O)C(=O)N[C@@H](Cc1c[nH]c2ccccc12)C(=O)N[C@@H](Cc1c[nH]c2ccccc12)C(=O)N[C@@H](Cc1ccc(O)cc1)C(=O)NCC(=O)N[C@@H](C)C(=O)N[C@@H](CC(=O)O)C(=O)N[C@H](C(=O)N[C@@H](CC(=O)O)C(N)=O)[C@@H](C)O` [Peptide 28] (Ac-EDDSWIWWYGADTD-NH2): the Ki is, setting by setting: under setting [3], 18 ± 1 nM; under setting [4], 18 ± 1 nM.

Turning to `CC[C@H](C)[C@H](NC(=O)[C@H](Cc1c[nH]c2ccccc12)NC(=O)[C@H](CO)NC(=O)[C@H](CC(=O)O)NC(=O)[C@H](CC(=O)O)NC(=O)[C@H](CCC(=O)O)NC(C)=O)C(=O)N[C@@H](CC(=O)O)C(=O)N[C@@H](Cc1c[nH]c2ccccc12)C(=O)NCC(=O)N1CCC[C@H]1C(=O)N[C@H](C(=O)NCC(=O)N[C@@H](CC(=O)O)C(=O)N[C@@H](CCC(=O)O)C(=O)N[C@@H](CC(=O)O)C(N)=O)[C@@H](C)O` [Peptide 29, Ac-EDDSWIDWGPTGDED-NH2] (Ac-EDDSWIDWGPTGDED-NH2), the Ki is 5.6 ± 0.7 nM under setting [3] and 5.6 ± 0.7 nM under setting [4].

For `CC[C@H](C)[C@H](NC(=O)[C@H](Cc1c[nH]c2ccccc12)NC(=O)[C@H](CO)NC(=O)[C@H](CC(=O)O)NC(=O)[C@H](CC(=O)O)NC(=O)[C@H](CCC(=O)O)NC(C)=O)C(=O)N[C@@H](CC(=O)O)C(=O)N[C@@H](Cc1c[nH]c2ccccc12)C(=O)N[C@@H](Cc1ccc(O)cc1)C(=O)NCC(=O)N[C@@H](C)C(=O)N[C@@H](CC(=O)O)C(=O)N[C@H](C(=O)N[C@@H](CC(=O)O)C(N)=O)[C@@H](C)O` [Peptide 30] (Ac-EDDSWIDWYGADTD-NH2), the inhibition constant (Ki) is, setting by setting: under setting [3], 11 ± 0.1 nM; under setting [4], 11 ± 0.1 nM.
